# Results as given in PubChem BioAssay AID270 (DTP/NCI, 2004).
# Where “and” joins values, the source holds several entries; their conditions need not be identical. Equal entries are not always repeated. Records with an inconclusive call do not appear.
# Test system: BDF1 mice, s.c. Lewis lung carcinoma, T/C %
# Assay: NCI In Vivo Anticancer Drug Screen. Data for tumor model Lewis Lung Carcinoma (subcutaneous) in B6D2F1 (BDF1) mice
# Outline: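 Antitumor effect in vivo is scored from survival or tumor burden, reported as treated relative to vehicle controls.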
# [1] = endpoint: mean tumor weight, dose: 0.5 mg/kg/injection, schedule: Q01DX011 (ip), vehicle: saline, higher = larger tumour
# [2] = endpoint: median survival time, dose: 1.0 mg/kg/injection, schedule: Q01DX009 (ip), vehicle: Klucel (hydroxypropylcellulose) (HPC), higher = longer survival
# [3] = endpoint: median survival time, dose: 8.0 mg/kg/injection, schedule: Q01DX009 (ip), vehicle: saline, higher = longer survival
structure (smiles),measurement,setting,value
N[C@@H](Cc1ccc(N(CCCl)CCCl)cc1)C(=O)O,T/C,[1],76 % of control
same,T/C,"endpoint: mean tumor weight, dose: 0.8 mg/kg/injection, schedule: Q01DX011 (ip), vehicle: carboxymethylcellulose (CMC), higher = larger tumour",71 % of control
same,T/C,"endpoint: mean tumor weight, dose: 1.0 mg/kg/injection, schedule: Q01DX011 (ip), vehicle: saline, higher = larger tumour",46 % of control
same,T/C,"endpoint: mean tumor weight, dose: 1.6 mg/kg/injection, schedule: Q01DX011 (ip), vehicle: carboxymethylcellulose (CMC), higher = larger tumour",70 % of control
same,T/C,"endpoint: mean tumor weight, dose: 2.0 mg/kg/injection, schedule: Q01DX011 (ip), vehicle: saline, higher = larger tumour",46 % of control
same,T/C,"endpoint: mean tumor weight, dose: 2.4 mg/kg/injection, schedule: Q01DX011 (ip), vehicle: carboxymethylcellulose (CMC), higher = larger tumour",68 % of control and 69 % of control
same,T/C,"endpoint: mean tumor weight, dose: 3.6 mg/kg/injection, schedule: Q01DX011 (ip), vehicle: carboxymethylcellulose (CMC), higher = larger tumour",45 % of control
same,T/C,"endpoint: mean tumor weight, dose: 4.0 mg/kg/injection, schedule: Q01DX011 (ip), vehicle: saline, higher = larger tumour",21 % of control
same,T/C,"endpoint: mean tumor weight, dose: 5.4 mg/kg/injection, schedule: Q01DX011 (ip), vehicle: carboxymethylcellulose (CMC), higher = larger tumour",20 % of control
same,T/C,"endpoint: median survival time, dose: 0.04 mg/kg/injection, schedule: Q01DX009 (ip), vehicle: saline, higher = longer survival",115 % of control
same,T/C,"endpoint: median survival time, dose: 0.08 mg/kg/injection, schedule: Q01DX009 (ip), vehicle: saline, higher = longer survival",103 % of control
same,T/C,"endpoint: median survival time, dose: 0.31 mg/kg/injection, schedule: Q01DX009 (ip), vehicle: saline, higher = longer survival",107 % of control
same,T/C,"endpoint: median survival time, dose: 0.5 mg/kg/injection, schedule: Q01DX009 (ip), vehicle: saline with Tween-80, higher = longer survival",101 % of control
same,T/C,"endpoint: median survival time, dose: 0.5 mg/kg/injection, schedule: Q01DX009 (ip), vehicle: saline, higher = longer survival",104 % of control and 122 % of control
same,T/C,"endpoint: median survival time, dose: 0.75 mg/kg/injection, schedule: Q01DX009 (ip), vehicle: saline, higher = longer survival",102 % of control
same,T/C,[2],107 % of control
same,T/C,"endpoint: median survival time, dose: 1.0 mg/kg/injection, schedule: Q01DX009 (ip), vehicle: saline with Tween-80, higher = longer survival",108 % of control
same,T/C,"endpoint: median survival time, dose: 1.0 mg/kg/injection, schedule: Q01DX009 (ip), vehicle: saline, higher = longer survival",107 % of control
same,T/C,"endpoint: median survival time, dose: 1.5 mg/kg/injection, schedule: Q01DX009 (ip), vehicle: saline, higher = longer survival",93 % of control
same,T/C,"endpoint: median survival time, dose: 2.0 mg/kg/injection, schedule: Q01DX001 (ip), vehicle: saline, higher = longer survival",106 % of control
same,T/C,"endpoint: median survival time, dose: 2.0 mg/kg/injection, schedule: Q01DX009 (ip), vehicle: Klucel (hydroxypropylcellulose) (HPC), higher = longer survival",89 % of control
same,T/C,"endpoint: median survival time, dose: 2.0 mg/kg/injection, schedule: Q01DX009 (ip), vehicle: saline with Tween-80, higher = longer survival",97 % of control
same,T/C,"endpoint: median survival time, dose: 2.5 mg/kg/injection, schedule: Q01DX001 (ip), vehicle: saline, higher = longer survival",100 % of control
same,T/C,"endpoint: median survival time, dose: 2.5 mg/kg/injection, schedule: Q01DX001 (ip), vehicle: water, higher = longer survival",90 % of control
same,T/C,"endpoint: median survival time, dose: 3.0 mg/kg/injection, schedule: Q01DX009 (ip), vehicle: saline, higher = longer survival",116 % of control
same,T/C,"endpoint: median survival time, dose: 4.0 mg/kg/injection, schedule: Q01DX001 (ip), vehicle: saline, higher = longer survival",100 % of control
same,T/C,"endpoint: median survival time, dose: 4.0 mg/kg/injection, schedule: Q01DX009 (ip), vehicle: Klucel (hydroxypropylcellulose) (HPC), higher = longer survival",104 % of control
same,T/C,"endpoint: median survival time, dose: 4.0 mg/kg/injection, schedule: Q01DX009 (ip), vehicle: saline, higher = longer survival",100 % of control and 123 % of control
same,T/C,"endpoint: median survival time, dose: 4.0 mg/kg/injection, schedule: Q04DX003 (ip), vehicle: saline, higher = longer survival",119 % of control
same,T/C,"endpoint: median survival time, dose: 5.0 mg/kg/injection, schedule: Q01DX001 (ip), vehicle: water, higher = longer survival",109 % of control
same,T/C,"endpoint: median survival time, dose: 8.0 mg/kg/injection, schedule: Q01DX001 (ip), vehicle: saline, higher = longer survival",112 % of control
same,T/C,[3],86 % of control
same,T/C,"endpoint: median survival time, dose: 8.0 mg/kg/injection, schedule: Q04DX003 (ip), vehicle: saline, higher = longer survival",107 % of control
same,T/C,"endpoint: median survival time, dose: 10.0 mg/kg/injection, schedule: Q01DX001 (ip), vehicle: saline, higher = longer survival",100 % of control
same,T/C,"endpoint: median survival time, dose: 10.0 mg/kg/injection, schedule: Q01DX001 (ip), vehicle: water, higher = longer survival",104 % of control
same,T/C,"endpoint: median tumor weight (est.), dose: 6.3 mg/kg/injection, schedule: Q01DX001 (ip), vehicle: carboxymethylcellulose (CMC), higher = larger tumour",41 % of control
same,T/C,"endpoint: median tumor weight (est.), dose: 13.0 mg/kg/injection, schedule: Q01DX001 (ip), vehicle: carboxymethylcellulose (CMC), higher = larger tumour",39 % of control
CC(=O)OC(C)(C)/C=C/C(=O)[C@](C)(O)[C@H]1[C@H](O)C[C@@]2(C)[C@@H]3CC=C4[C@@H](C[C@H](O)C(=O)C4(C)C)[C@]3(CO)C(=O)C[C@]12C,T/C,"endpoint: mean tumor weight, dose: 0.57 mg/kg/injection, schedule: Q01DX011 (ip), vehicle: saline, higher = larger tumour",93 % of control
O=C(O)/C=C\C(=O)Nc1nccs1,T/C,"endpoint: mean tumor weight, dose: 50.0 mg/kg/injection, schedule: Q01DX011 (ip), vehicle: carboxymethylcellulose (CMC), higher = larger tumour",87 % of control
same,T/C,"endpoint: mean tumor weight, dose: 100.0 mg/kg/injection, schedule: Q01DX011 (ip), vehicle: carboxymethylcellulose (CMC), higher = larger tumour",85 % of control
CC[C@@]1(O)C(=O)OCc2c1cc1n(c2=O)Cc2cc3c(OC)cccc3nc2-1,T/C,"endpoint: median survival time, dose: 0.12 mg/kg/injection, schedule: Q01DX009 (ip), vehicle: Klucel (hydroxypropylcellulose) (HPC), higher = longer survival",119 % of control
same,T/C,"endpoint: median survival time, dose: 0.25 mg/kg/injection, schedule: Q01DX009 (ip), vehicle: Klucel (hydroxypropylcellulose) (HPC), higher = longer survival",197 % of control
same,T/C,"endpoint: median survival time, dose: 0.51 mg/kg/injection, schedule: Q01DX009 (ip), vehicle: Klucel (hydroxypropylcellulose) (HPC), higher = longer survival",198 % of control
same,T/C,[2],198 % of control
CNC=O,T/C,"endpoint: mean tumor weight, dose: 250.0 mg/kg/injection, schedule: Q01DX011 (ip), vehicle: saline, higher = larger tumour",67 % of control and 69 % of control
same,T/C,"endpoint: mean tumor weight, dose: 500.0 mg/kg/injection, schedule: Q01DX011 (ip), vehicle: saline, higher = larger tumour",10 % of control and 12 % of control
COc1cc2ccc3c4cc5c(cc4c[n+](C)c3c2cc1OC)OCO5,T/C,"endpoint: median survival time, dose: 1.25 mg/kg/injection, schedule: Q01DX009 (ip), vehicle: Klucel (hydroxypropylcellulose) (HPC), higher = longer survival",108 % of control
same,T/C,"endpoint: median survival time, dose: 2.5 mg/kg/injection, schedule: Q01DX009 (ip), vehicle: Klucel (hydroxypropylcellulose) (HPC), higher = longer survival",92 % of control
same,T/C,"endpoint: median survival time, dose: 5.0 mg/kg/injection, schedule: Q01DX009 (ip), vehicle: Klucel (hydroxypropylcellulose) (HPC), higher = longer survival",102 % of control
same,T/C,"endpoint: median survival time, dose: 10.0 mg/kg/injection, schedule: Q01DX009 (ip), vehicle: Klucel (hydroxypropylcellulose) (HPC), higher = longer survival",99 % of control
CCN(CC)CCCC(C)Nc1c2ccc(Cl)cc2nc2ccc(OC)cc12 (configuration not stated),T/C,[3],103 % of control
same,T/C,"endpoint: median survival time, dose: 8.0 mg/kg/injection, schedule: Q01DX009 (ip), vehicle: suspension in saline, higher = longer survival",95 % of control
same,T/C,"endpoint: median survival time, dose: 16.0 mg/kg/injection, schedule: Q01DX009 (ip), vehicle: saline, higher = longer survival",101 % of control
same,T/C,"endpoint: median survival time, dose: 16.0 mg/kg/injection, schedule: Q01DX009 (ip), vehicle: suspension in saline, higher = longer survival",113 % of control
same,T/C,"endpoint: median survival time, dose: 32.0 mg/kg/injection, schedule: Q01DX009 (ip), vehicle: saline with Tween-80, higher = longer survival",163 % of control
same,T/C,"endpoint: median survival time, dose: 32.0 mg/kg/injection, schedule: Q01DX009 (ip), vehicle: suspension in saline, higher = longer survival",104 % of control
same,T/C,"endpoint: median survival time, dose: 64.0 mg/kg/injection, schedule: Q01DX009 (ip), vehicle: saline with Tween-80, higher = longer survival",112 % of control
same,T/C,"endpoint: median survival time, dose: 64.0 mg/kg/injection, schedule: Q01DX009 (ip), vehicle: saline, higher = longer survival",101 % of control
same,T/C,"endpoint: median survival time, dose: 64.0 mg/kg/injection, schedule: Q01DX009 (ip), vehicle: suspension in saline, higher = longer survival",105 % of control
C[C@]12C=CC(=O)C=C1CC[C@@H]1[C@@H]2[C@@H](O)C[C@@]2(C)[C@H]1CC[C@]2(O)C(=O)CO,T/C,"endpoint: mean tumor weight, dose: 12.5 mg/kg/injection, schedule: Q01DX011 (sc), vehicle: steriod suspending solution, higher = larger tumour",81 % of control
same,T/C,"endpoint: mean tumor weight, dose: 25.0 mg/kg/injection, schedule: Q01DX011 (sc), vehicle: steriod suspending solution, higher = larger tumour",72 % of control
same,T/C,"endpoint: mean tumor weight, dose: 50.0 mg/kg/injection, schedule: Q01DX011 (sc), vehicle: steriod suspending solution, higher = larger tumour",51 % of control
same,T/C,"endpoint: mean tumor weight, dose: 100.0 mg/kg/injection, schedule: Q01DX011 (sc), vehicle: steriod suspending solution, higher = larger tumour",14 % of control
same,T/C,"endpoint: median survival time, dose: 40.0 mg/kg/injection, schedule: Q02DX009 (ip), vehicle: Klucel (hydroxypropylcellulose) (HPC), higher = longer survival",99 % of control
same,T/C,"endpoint: median survival time, dose: 80.0 mg/kg/injection, schedule: Q02DX009 (ip), vehicle: Klucel (hydroxypropylcellulose) (HPC), higher = longer survival",93 % of control
same,T/C,"endpoint: median survival time, dose: 320.0 mg/kg/injection, schedule: Q02DX009 (ip), vehicle: Klucel (hydroxypropylcellulose) (HPC), higher = longer survival",86 % of control
C[C@]12CC[C@H](OC3OC(CO)C(O)C(O)C3O)C[C@H]1CC[C@@H]1[C@@H]2CC[C@]2(C)[C@@H](C3=CCOC3=O)CC[C@]12O (some centres not stated),T/C,"endpoint: mean tumor weight, dose: 0.25 mg/kg/injection, schedule: Q01DX011 (ip), vehicle: carboxymethylcellulose (CMC), higher = larger tumour",33 % of control
same,T/C,"endpoint: mean tumor weight, dose: 0.25 mg/kg/injection, schedule: Q01DX011 (ip), vehicle: saline, higher = larger tumour",41 % of control
same,T/C,"endpoint: mean tumor weight, dose: 0.5 mg/kg/injection, schedule: Q01DX011 (ip), vehicle: carboxymethylcellulose (CMC), higher = larger tumour",47 % of control
same,T/C,[1],16 % of control
same,T/C,"endpoint: mean tumor weight, dose: 1.0 mg/kg/injection, schedule: Q01DX011 (ip), vehicle: carboxymethylcellulose (CMC), higher = larger tumour",14 % of control
CN(C)c1nc(N(C)C)nc(N(C)C)n1,T/C,"endpoint: median survival time, dose: 6.25 mg/kg/injection, schedule: Q08HX024 (ip), vehicle: Klucel (hydroxypropylcellulose) (HPC), higher = longer survival",106 % of control
same,T/C,"endpoint: median survival time, dose: 12.5 mg/kg/injection, schedule: Q01DX009 (ip), vehicle: saline with Tween-80, higher = longer survival",93 % of control and 102 % of control
same,T/C,"endpoint: median survival time, dose: 25.0 mg/kg/injection, schedule: Q01DX009 (ip), vehicle: saline with Tween-80, higher = longer survival",97 % of control and 102 % of control
same,T/C,"endpoint: median survival time, dose: 25.0 mg/kg/injection, schedule: Q08HX024 (ip), vehicle: Klucel (hydroxypropylcellulose) (HPC), higher = longer survival",112 % of control
same,T/C,"endpoint: median survival time, dose: 50.0 mg/kg/injection, schedule: Q01DX009 (ip), vehicle: saline with Tween-80, higher = longer survival",103 % of control and 110 % of control
same,T/C,"endpoint: median survival time, dose: 100.0 mg/kg/injection, schedule: Q01DX009 (ip), vehicle: saline with Tween-80, higher = longer survival",102 % of control
